Measurements published in patent US10058540B2, “2-amino-5,5-difluoro-6-(fluoromethyl)-6-phenyl-3,4,5,6-tetrahydropyridines as BACE1 inhibitors” (H. Lundbeck A/S, priority 2014, dated 2018).
Like-named read-outs stand apart in the source and are kept apart here.

Tests used:
[1] = Bioanalysis of brain and plasma samples (exposure, UPLC-MS/MS); assay type: in vivo, rat; details: male, Sprague Dawley, po, 3 hours post dose; for Kp at 3 h: brain/plasma, rat, read-out: Brain/Plasma ratio; for concentration at 3 h: read-out: Exp
Experimental: Young adult Male Sprague Dawley rats of approximately 250 g weight were purchased from Charles River and received 0-30 mg/kg of vehicle (10% HP betaCD+1M MeSO4, pH 2.5) or test compounds (dissolved in vehicle) only by oral gavage (p.o). The compounds are dosed at a volume of […]. Cohorts of 5-10 animals were established for each treatment condition.
At T=180 minutes after initial dosing the animals were stunned and decapitated with a guillotine. Trunk-blood was sampled in EDTA coated tubes after decapitation of the animal. The blood was centrifuged at 2200 G at 4° C. for 15 minutes and the plasma was collected and frozen at −80° C. The blood was aliquoted for Aβ ELISA and DMPK analysis. Immediately following sacrifice, the brain was extracted and split into 2 halves. The right hemibrains were snap frozen on dry ice and stored at −80° C. The left half was dissected; with the front forebrain taken for Aβ ELISA and the remainder used for DMPK analysis. These samples were also snap frozen on dry ice and stored at −80° C. until use for analysis.
TC was determined in plasma and brain homogenate using UltraPerformance LC® (UPLC®) chromatography followed by tandem-MS (MS/MS) detection.
Brain homogenate was prepared by homogenizing the brain 1:4 (v/v) with water:2-propanol:DMSO (50:30:20 v/v/v) followed by centrifugation and collection of the supernatant. Calibration standards and QC samples were prepared using a Hamilton robot. 150 μL of ISTD in acetonitrile (1 ng/mL ISTD) was added to 25 μL of calibration standards, QC samples and test samples (plasma and brain homogenate) using a Biomek robot. After centrifugation (6200 g, 4° C., 20 min) 100 μL supernatant from each sample was transferred to a new plate and mixed with 100 μL water with 0.1% formic acid using a Biomek robot (method file InVivo transfer). After a quick centrifugation (6200 g, 4° C., 5 min) the samples were placed in the auto-sampler.
MS/MS detection was done with an Applied Biosystems Sciex API 4000 instrument in positive-ion electrospray ionisation mode. TC and ISTD were detected at a parent>daughter mass to charge ratio (m/z). Nitrogen was used for the nebulizer and collision gases. The peak area correlated linearly with the plasma and brain concentration of the analytes in the range of 1.00-1000 ng/mL plasma and 5.00-5000 ng/g brain (corrected for dilution). If the plasma/brain sample drug concentration was above 1000 ng/mL or 5000 ng/g, the sample was diluted appropriately in blank plasma/blank brain homogenate before analysis.
• Waters Acquity UPLC HSS C18 SB (pH 2-8) 1.8 μm, 2.1×30 mm. • Mobile phase A: 0.1% aq. formic acid or 0.1% aq. ammonium hydroxide • Mobile phase B: Acetonitrile with 0.1% aq. formic acid or 0.1% aq. ammonium hydroxide. • Weak wash: Methanol • Strong wash: Acetonitrile/Isopropanol/formic acid (50/50/2 v/v/v) • Flow: 0.6 mL/min • Run time: 3 min. • To waste: 0-0.5 min • Temperature: 40° C. Gradient: […]
Compounds 11 and 15 were administered at doses of 10 mg/kg p.o. and brain and plasma samples were collected at 3 hours post dose and the following exposures were measured as described above.

P-gp (MDR1) = assay: MDCK-MDR1 assay (permeability / Pgp efflux); assay type: in vitro ADME; details: dog, Papp BA/Papp AB, Pgp substrate when ≥2
Experimental: The permeability of the test compounds was assessed in MDCK-MDR1 cells that were cultured to confluency (4-6 days) in a 96 transwell plate. Test compounds were diluted with the transport buffer (HBSS+1% BSA) to a concentration of 0.5 μM and applied to the apical or basolateral side of the cell monolayer. Permeation of the test compounds from A to B direction or B to A direction was determined in triplicate over a 60-minute incubation time at 37° C. and 5% CO2 with a relative humidity of 95%. Test compounds were quantified by LC-MS/MS analysis based on the peaks area ratios of analyte/IS in both the receiver and donor wells of the transwell plate.
The apparent permeability coefficient Papp (cm/s) was calculated using the equation: Papp=(dCr/dt)×Vr/(A×C0) Where dCr/dt is the cumulative concentration of compound in the receiver chamber as a function of time (μM/s); Vr is the solution volume in the receiver chamber (0.05 mL on the apical side; 0.25 mL on the basolateral side); A is the surface area for the transport, i.e. 0.0804 cm^2 for the area of the monolayer; C0 is the initial concentration in the donor chamber (μM).
Compounds are classified Pgp substrates when efflux ratio (Papp BA/Papp AB) is ≥2.

Kp at 3 h ([1]; 10 mg/kg p.o.): 1.8
Kp at 3 h ([1]; 30 mg/kg p.o.): 1.3
concentration at 3 h ([1]; rat brain, 10 mg/kg p.o.): 1760 ng/g
concentration at 3 h ([1]; rat brain, 30 mg/kg p.o.): 4210 ng/g
concentration at 3 h ([1]; rat plasma, 10 mg/kg p.o.): 1120 ng/g
concentration at 3 h ([1]; rat plasma, 30 mg/kg p.o.): 3290 ng/g
efflux ratio at 60 min, 0.5 μM (P-gp (MDR1)): 0.77
Compound: COc1cnc(C(=O)Nc2cc(F)c(F)c([C@@]3(CF)N=C(N)CCC3(F)F)c2)cn1 [Compound 11, (S)-N-(3-(6-amino-3,3-difluoro-2-(fluoromethyl)-2,3,4,5-tetrahydropyridin-2-yl)-4,5-difluorophenyl)-5-methoxypyrazine-2-carboxamide]
